Data on 25 molecules can be found in ChEMBL document CHEMBL1201862, “PubChem BioAssay data set” (2004).

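Interpolation was linear, between the two tested concentrations surrounding the appropriate level; five concentrations were tested over 48 hours in 96-well plates. GI50: concentration for 50% inhibition of growth.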 Active and inactive are the calls of the source. Cut-off read from the data, not from the text of the source: active = GI50 up to about 1.1 µM and inactive = higher.

Some test systems named below: XF498; HOP-18; DLD-1; DMS-114; LXFL 529; KM-20L2; SNB-78; DMS-273; RXF 631.
What all share (assay): growth of human tumour cells (NCI), 48 h

Consider `CCC(C)C(=O)O[C@H]1C(=O)O[C@@H]2C[C@H]3C(C)=CC(=O)[C@@H](O)[C@]3(C)[C@H]3[C@@H](O)[C@H](O)[C@@]4(C)OC[C@]32[C@@H]14` (some centres not stated), for which the GI50 in the test on XF498 is 0.0208 µM (active); in the test on HOP-18 it was 0.158 µM (active); with DLD-1, 0.0293 µM (active); in the test on DMS-114, 0.0152 µM (active); in the test on LXFL 529, 0.0103 µM (active); in the test with KM-20L2, 0.0468 µM (active). Also, the results for the GI50 in the test on SNB-78 and in the test with DMS-273 were 0.0323 µM (active) and 0.019 µM (active), respectively.
For the molecule `Cc1nc2ccccc2c(=O)n1NC(=S)Nc1ccccc1`, the GI50 is > 100 µM (inactive) with HOP-18; > 100 µM (inactive) with DLD-1; 71.1 µM (inactive) in the test with DMS-114; > 100 µM (inactive) in the test on LXFL 529; > 100 µM (inactive) in the test on DMS-273.
As for `N#CC(C(=O)/C(=N/N)C(C#N)c1ccc(Cl)cc1)c1ccc(Cl)cc1` (configuration not stated), the GI50 with XF498 is 57.3 µM (inactive); in the test on HOP-18, > 100 µM (inactive); with DLD-1 it was > 100 µM (inactive); in the test on DMS-114, > 100 µM (inactive); in the test on LXFL 529, > 100 µM (inactive); with KM-20L2 it was > 100 µM (inactive). In addition, the GI50 in the test on RXF 631 and in the test with SNB-78 was > 100 µM (inactive) throughout.
On to `Cc1nc2sccn2c1C(=O)NNC(N)=S`, for which the GI50 with HOP-18, with DLD-1, in the test with DMS-114, with LXFL 529, in the test with KM-20L2 and in the test with DMS-273 was > 100 µM (inactive) throughout.
For the molecule `CCOc1ncnc2ccc(Cl)c(I)c12`, the GI50 with XF498 was 45.4 µM (inactive); with DLD-1 it was 99.1 µM (inactive); in the test on DMS-114, 45.1 µM (inactive); in the test with LXFL 529 it was 81.1 µM (inactive); in the test on KM-20L2, > 100 µM (inactive); in the test on DMS-273 it was > 100 µM (inactive).
In the case of `Clc1ccccc1C1SCc2nc3ccccc3n21` (configuration not stated), the GI50 was 30.3 µM (inactive) with XF498; < 0.01 µM (active) in the test on HOP-18; 33.2 µM (inactive) in the test with DLD-1; 26.4 µM (inactive) with LXFL 529; 17.1 µM (inactive) in the test on SNB-78.
Take `C=C(COC(C)=O)CC(/C=C(\C)CCC=C(C)C)OC(C)=O` (configuration not stated): the GI50 in the test on XF498 was 47.6 µM (inactive); with DLD-1, > 100 µM (inactive); in the test with DMS-114 it was > 100 µM (inactive); with LXFL 529 it was > 100 µM (inactive); in the test on KM-20L2, > 100 µM (inactive); in the test with SNB-78, > 100 µM (inactive). Also, the GI50 in the test on DMS-273 was > 100 µM (inactive).
In the case of `CC(C)=CC(=O)C1c2cccc(O)c2C(=O)c2c(O)cc(C)cc21` (configuration not stated), the GI50 with XF498 was 1.54 µM (inactive); with HOP-18, 2.15 µM (inactive); with DLD-1, 2.87 µM (inactive); in the test with DMS-114, 1.79 µM (inactive); with LXFL 529 it was 2.04 µM (inactive); in the test on KM-20L2 it was 4.86 µM (inactive). Moreover, the results for the GI50 in the test with SNB-78 and with DMS-273 were 2.86 µM (inactive) and 3.48 µM (inactive), respectively.
Turning to `CCOC(=N)CC(=O)c1ccccc1`, the GI50 in the test with XF498, in the test on HOP-18, in the test with DLD-1, with DMS-114, in the test with LXFL 529 and in the test with KM-20L2 was > 100 µM (inactive) throughout. Besides, the GI50 in the test on SNB-78 and in the test with DMS-273 was > 100 µM (inactive) in each case.
For `C=C1C(=O)OC2/C=C(\CO)C(OC(C)=O)CC(O)/C(C)=C/C(OC(=O)C(C)CC)C12` (configuration not stated), the GI50 with XF498 is 15.8 µM (inactive); in the test on HOP-18, 23.8 µM (inactive); in the test on DLD-1, 12.9 µM (inactive); in the test on DMS-114 it was 23.6 µM (inactive); with LXFL 529, 13.9 µM (inactive); in the test with KM-20L2, 22.4 µM (inactive). Further, the GI50 was 33.5 µM (inactive) with RXF 631, 16.3 µM (inactive) in the test on SNB-78 and 19.1 µM (inactive) with DMS-273.
As to `COC(=O)C(C(=O)C(=O)NC1=C(Cl)C(=O)c2ccccc2C1=O)c1csc(-n2nc(-c3ccccc3)cc2-c2ccccc2)n1` (configuration not stated), the GI50 in the test on XF498 was > 100 µM (inactive); in the test on HOP-18, 13.1 µM (inactive); in the test on DLD-1, > 100 µM (inactive); with DMS-114 it was 10.2 µM (inactive); with LXFL 529 it was > 100 µM (inactive); in the test on KM-20L2 it was > 100 µM (inactive). The GI50 with RXF 631, with SNB-78 and in the test on DMS-273 was > 100 µM (inactive) in each case.
Consider `COC1OC(COCc2ccc(Cl)cc2)C(OCc2ccc(Cl)cc2)C1O` (configuration not stated), for which the GI50 in the test with XF498 is 3.07 µM (inactive); in the test with HOP-18 it was 12.8 µM (inactive); in the test with DLD-1 it was 16.2 µM (inactive); with DMS-114 it was 13.7 µM (inactive); with LXFL 529, 18.4 µM (inactive); in the test with KM-20L2, 17.3 µM (inactive). Also, the GI50 is 16.2 µM (inactive) in the test on RXF 631 and 17.3 µM (inactive) in the test on DMS-273.
In the case of `CCCCCCC(C)OC(=O)/C=C(\CC(=O)OC(C)CCCCCC)C(=O)OC(C)CCCCCC` (configuration not stated), the GI50 in the test on DLD-1, in the test on DMS-114, with LXFL 529, with KM-20L2, in the test with SNB-78 and in the test with DMS-273 was > 100 µM (inactive) in each case.
On to `COc1cc([C@@H]2c3cc4c(cc3[C@@H](NC(=O)c3ccc(N)cc3)C3COC(=O)[C@@H]32)OCO4)cc(OC)c1O` (some centres not stated), for which the GI50 is > 100 µM (inactive) in the test with HOP-18; 3.47 µM (inactive) in the test with DLD-1; 2 µM (inactive) with DMS-114; 13.9 µM (inactive) with LXFL 529; 1.73 µM (inactive) in the test with KM-20L2; 0.37 µM (active) in the test with DMS-273.
For `COC12OCCN(CCO)C1=CC(=O)C1(C)N=NC(C)C12` (configuration not stated), the GI50 in the test with HOP-18, in the test with DLD-1, in the test with DMS-114, in the test with LXFL 529, with RXF 631 and in the test on SNB-78 was > 100 µM (inactive) in each case. Moreover, the GI50 with DMS-273 was > 100 µM (inactive).
`O=C(NC(=O)c1ccccc1[N+](=O)[O-])Nc1ccc(Oc2ncc(Cl)cn2)c(C(F)(F)F)c1`: the GI50 is 0.0103 µM (active) with XF498; 53.1 µM (inactive) in the test with HOP-18; < 0.0132 µM (active) with DLD-1; < 0.01 µM (active) in the test on DMS-114; < 0.01 µM (active) with LXFL 529; < 0.0125 µM (active) in the test on KM-20L2. The GI50 in the test with SNB-78 and in the test with DMS-273 was < 0.01 µM (active) each time.
Regarding `CSCC1CC(c2ccc(Cl)cc2)=NO1` (configuration not stated), the GI50 in the test on HOP-18, in the test on DLD-1, with DMS-114, in the test on LXFL 529, in the test with KM-20L2 and in the test with RXF 631 was > 100 µM (inactive) throughout. For the same molecule, the GI50 with SNB-78 and in the test with DMS-273 was > 100 µM (inactive) each time.
Regarding `O=C1c2ccccc2N2Oc3ccccc3C12c1ccccc1` (configuration not stated), the GI50 in the test with HOP-18 is > 100 µM (inactive); in the test on DLD-1, > 10 µM (inactive); in the test with DMS-114 it was > 100 µM (inactive); with LXFL 529, > 100 µM (inactive); in the test with KM-20L2, > 100 µM (inactive); in the test on SNB-78, > 100 µM (inactive). In addition, the GI50 with DMS-273 is > 100 µM (inactive).
Consider `OC/C=C(\I)CCCOCOCc1ccccc1`, for which the GI50 with XF498 is 14 µM (inactive); with DLD-1, > 100 µM (inactive); in the test with DMS-114, 22.8 µM (inactive); in the test with LXFL 529, 48.9 µM (inactive); in the test with KM-20L2 it was 29.5 µM (inactive); with SNB-78, 25.6 µM (inactive). Moreover, the GI50 with DMS-273 is 21.8 µM (inactive).
On to `CCCCCCCCCCCCC(Br)C(=O)NCC(N)=O` (configuration not stated), for which the GI50 with XF498 was 1.37 µM (inactive); with HOP-18 it was 14.3 µM (inactive); with DLD-1 it was 12.9 µM (inactive); in the test with DMS-114 it was 3.61 µM (inactive); in the test with LXFL 529, 9.91 µM (inactive); in the test with KM-20L2, 20.4 µM (inactive). Besides, the GI50 in the test with RXF 631 is 3.63 µM (inactive); in the test with SNB-78, 12.4 µM (inactive); with DMS-273, 11.7 µM (inactive).
`O=C(CC(=O)C(F)(F)F)c1csc2ccccc12`: the GI50 in the test with DMS-114 is 31 µM (inactive); in the test on LXFL 529 it was 21.7 µM (inactive); in the test with KM-20L2, 39.3 µM (inactive); in the test on SNB-78, 37.4 µM (inactive); in the test with DMS-273, 25 µM (inactive).
Turning to `O=c1oc2c3ccc4ccccc4c3n(CCN3CCOCC3)c2c2ccccc12`, the GI50 in the test with HOP-18, in the test on DLD-1, with DMS-114, in the test with LXFL 529 and in the test with KM-20L2 was > 100 µM (inactive) throughout.
As to `O=C1Nc2nc3ccccc3n2N=C2CCCC12` (configuration not stated), the GI50 in the test with XF498, in the test on DLD-1, in the test on DMS-114, in the test with LXFL 529, in the test on KM-20L2 and in the test with RXF 631 was > 100 µM (inactive) each time. Moreover, the GI50 with SNB-78 and with DMS-273 was > 100 µM (inactive) in each case.
As to `COc1ccc(NC(=O)c2cc(OC)cc(OC)c2)cc1`, the GI50 in the test with XF498 was > 70.3 µM (inactive); in the test on HOP-18, > 46.7 µM (inactive); with DLD-1, 17.1 µM (inactive); in the test on DMS-114, 7.29 µM (inactive); with LXFL 529, 40.5 µM (inactive); in the test with KM-20L2, 4.81 µM (inactive). Besides, the GI50 in the test with SNB-78 was 26 µM (inactive); in the test with DMS-273, 9.02 µM (inactive).
Turning to `Cc1cc(C(=C2C=CC(=N)C=C2)c2ccc(N)cc2)ccc1N` [FUCHSIN, BASIC], the GI50 in the test with XF498 is 2.77 µM (inactive); in the test on DLD-1 it was 3.45 µM (inactive); with DMS-114, 1.31 µM (inactive); in the test on LXFL 529, 1.03 µM (active); in the test on KM-20L2, 3.77 µM (inactive); in the test with SNB-78, 2.76 µM (inactive).
